# Results as given in paper PMC7181660, “A novel specific PERK activator reduces toxicity and extends survival in Huntington's disease models” (Scientific Reports, 2020).
# Assays:
# Assay in all cases: biochemical
# Format in all cases: biochemical
# panel of 391 kinases [1] = target: panel of 391 kinases (Homo sapiens, UniProt Q9UHD2); conditions: TBK1, MK-28 1 µM, ATP 1 µM
# panel of 391 kinases [2] = target: panel of 391 kinases (Homo sapiens, UniProt P51956); conditions: NEK3, MK-28 1 µM, ATP 1 µM
# panel of 391 kinases [3] = target: panel of 391 kinases (Homo sapiens, UniProt Q12852); conditions: DLK/MAP3K12, MK-28 1 µM, ATP 1 µM
# panel of 391 kinases [4] = target: panel of 391 kinases (Homo sapiens, UniProt Q9UKI8); conditions: TLK1, MK-28 1 µM, ATP 1 µM
# panel of 391 kinases [5] = target: panel of 391 kinases (Homo sapiens, UniProt Q05655); conditions: PKCd, MK-28 1 µM, ATP 1 µM
# panel of 391 kinases [6] = target: panel of 391 kinases (Homo sapiens, UniProt P30291); conditions: WEE1, MK-28 1 µM, ATP 1 µM
# panel of 391 kinases [7] = target: panel of 391 kinases (Homo sapiens, UniProt Q13164); conditions: ERK5/MAPK7, MK-28 1 µM, ATP 1 µM
# panel of 391 kinases [8] = target: panel of 391 kinases (Homo sapiens, UniProt O95747); conditions: OSR1/OXSR1, MK-28 1 µM, ATP 1 µM
# panel of 391 kinases [9] = target: panel of 391 kinases (Homo sapiens, UniProt Q9NRH2); conditions: SNRK, MK-28 1 µM, ATP 1 µM
# panel of 391 kinases [10] = target: panel of 391 kinases (Homo sapiens, UniProt Q96NX5); conditions: CAMK1g, MK-28 1 µM, ATP 1 µM
# panel of 391 kinases [11] = target: panel of 391 kinases (Homo sapiens, UniProt P42345); conditions: kinase mTOR/FRAP1, compound at 1 µM, single dose in duplicates, 1 µM ATP
# panel of 391 kinases [12] = target: panel of 391 kinases (Homo sapiens, UniProt O14757); conditions: CHK1, MK-28 1 µM, ATP 1 µM
# panel of 391 kinases [13] = target: panel of 391 kinases (Homo sapiens, UniProt P49840); conditions: GSK3a, MK-28 1 µM, ATP 1 µM
# panel of 391 kinases [14] = target: panel of 391 kinases (Homo sapiens, UniProt P06239); conditions: LCK, MK-28 1 µM, ATP 1 µM
# panel of 391 kinases [15] = target: panel of 391 kinases (Homo sapiens, UniProt Q9UM73); conditions: ALK, MK-28 1 µM, ATP 1 µM
# panel of 391 kinases [16] = target: panel of 391 kinases (Homo sapiens, UniProt Q8N4C8); conditions: MINK/MINK1, MK-28 1 µM, ATP 1 µM
# panel of 391 kinases [17] = target: panel of 391 kinases (Homo sapiens, UniProt P53779); conditions: JNK3, MK-28 1 µM, ATP 1 µM
# panel of 391 kinases [18] = target: panel of 391 kinases (Homo sapiens, UniProt O15111); conditions: IKKa/CHUK, MK-28 1 µM, ATP 1 µM
# panel of 391 kinases [19] = target: panel of 391 kinases (Homo sapiens, UniProt Q8IY84); conditions: NIM1, MK-28 1 µM, ATP 1 µM
# panel of 391 kinases [20] = target: panel of 391 kinases (Homo sapiens, UniProt P06213); conditions: IR, MK-28 1 µM, ATP 1 µM
# panel of 391 kinases [21] = target: panel of 391 kinases (Homo sapiens, UniProt Q9BUB5); conditions: MNK1, MK-28 1 µM, ATP 1 µM
# panel of 391 kinases [22] = target: panel of 391 kinases (Homo sapiens, UniProt Q8IU85); conditions: CAMK1d, MK-28 1 µM, ATP 1 µM
# panel of 391 kinases [23] = target: panel of 391 kinases (Homo sapiens, UniProt Q8NE63); conditions: HIPK4, MK-28 1 µM, ATP 1 µM
# panel of 391 kinases [24] = target: panel of 391 kinases (Homo sapiens, UniProt Q9NQU5); conditions: PAK6, MK-28 1 µM, ATP 1 µM
# panel of 391 kinases [25] = target: panel of 391 kinases (Homo sapiens, UniProt P45985); conditions: MKK4, MK-28 1 µM, ATP 1 µM
# panel of 391 kinases [26] = target: panel of 391 kinases (Homo sapiens, UniProt Q9UEE5); conditions: DRAK1/STK17A, MK-28 1 µM, ATP 1 µM
# panel of 391 kinases [27] = target: panel of 391 kinases (Homo sapiens, UniProt Q6P3R8); conditions: NEK5, MK-28 1 µM, ATP 1 µM
# [28] = read-out: % Enzyme Activity (relative to DMSO controls)
compound,measurement,setting,value
CN(/N=C\c1ccc(O)c(O)c1)c1nc(-c2ccccc2)cc(-c2ccccc2)n1 [MK-28],% Enzyme Activity (relative to DMSO controls),panel of 391 kinases [1],116.87%
same,remaining activity at 1 µM,panel of 391 kinases [1]; [28],126%
same,% Enzyme Activity (relative to DMSO controls),panel of 391 kinases [2],77.47%
same,remaining activity at 1 µM,panel of 391 kinases [2]; [28],79.2%
same,% Enzyme Activity (relative to DMSO controls),panel of 391 kinases [3],122.20%
same,remaining activity at 1 µM,panel of 391 kinases [3]; [28],124%
same,% Enzyme Activity (relative to DMSO controls),panel of 391 kinases [4],93.00%
same,remaining activity at 1 µM,panel of 391 kinases [4]; [28],96.5%
same,% Enzyme Activity (relative to DMSO controls),panel of 391 kinases [5],97.74%
same,remaining activity at 1 µM,panel of 391 kinases [5]; [28],98.5%
same,% Enzyme Activity (relative to DMSO controls),panel of 391 kinases [6],112.80%
same,remaining activity at 1 µM,panel of 391 kinases [6]; [28],114%
same,% Enzyme Activity (relative to DMSO controls),panel of 391 kinases [7],118.22%
same,remaining activity at 1 µM,panel of 391 kinases [7]; [28],119%
same,% Enzyme Activity (relative to DMSO controls),panel of 391 kinases [8],101.98%
same,remaining activity at 1 µM,panel of 391 kinases [8]; [28],105%
same,% Enzyme Activity (relative to DMSO controls),panel of 391 kinases [9],99.62%
same,remaining activity at 1 µM,panel of 391 kinases [9]; [28],100%
same,% Enzyme Activity (relative to DMSO controls),panel of 391 kinases [10],96.34%
same,remaining activity at 1 µM,panel of 391 kinases [10]; [28],100%
same,% Enzyme Activity (relative to DMSO controls),panel of 391 kinases [11],93.79%
same,remaining activity at 1 µM,panel of 391 kinases [11]; [28],94.4%
same,% Enzyme Activity (relative to DMSO controls),panel of 391 kinases [12],141.74%
same,remaining activity at 1 µM,panel of 391 kinases [12]; [28],150%
same,% Enzyme Activity (relative to DMSO controls),panel of 391 kinases [13],82.88%
same,remaining activity at 1 µM,panel of 391 kinases [13]; [28],83%
same,% Enzyme Activity (relative to DMSO controls),panel of 391 kinases [14],116.76%
same,remaining activity at 1 µM,panel of 391 kinases [14]; [28],117%
same,% Enzyme Activity (relative to DMSO controls),panel of 391 kinases [15],82.73%
same,remaining activity at 1 µM,panel of 391 kinases [15]; [28],82.8%
same,% Enzyme Activity (relative to DMSO controls),panel of 391 kinases [16],95.98%
same,remaining activity at 1 µM,panel of 391 kinases [16]; [28],98.7%
same,% Enzyme Activity (relative to DMSO controls),panel of 391 kinases [17],94.93%
same,remaining activity at 1 µM,panel of 391 kinases [17]; [28],99.6%
same,% Enzyme Activity (relative to DMSO controls),panel of 391 kinases [18],106.17%
same,remaining activity at 1 µM,panel of 391 kinases [18]; [28],107%
same,% Enzyme Activity (relative to DMSO controls),panel of 391 kinases [19],98.00%
same,remaining activity at 1 µM,panel of 391 kinases [19]; [28],104%
same,% Enzyme Activity (relative to DMSO controls),panel of 391 kinases [20],92.32%
same,remaining activity at 1 µM,panel of 391 kinases [20]; [28],94.4%
same,% Enzyme Activity (relative to DMSO controls),panel of 391 kinases [21],114.65%
same,remaining activity at 1 µM,panel of 391 kinases [21]; [28],116%
same,% Enzyme Activity (relative to DMSO controls),panel of 391 kinases [22],86.95%
same,remaining activity at 1 µM,panel of 391 kinases [22]; [28],87.6%
same,% Enzyme Activity (relative to DMSO controls),panel of 391 kinases [23],97.91%
same,remaining activity at 1 µM,panel of 391 kinases [23]; [28],98.4%
same,% Enzyme Activity (relative to DMSO controls),panel of 391 kinases [24],97.64%
same,remaining activity at 1 µM,panel of 391 kinases [24]; [28],98%
same,% Enzyme Activity (relative to DMSO controls),panel of 391 kinases [25],102.88%
same,remaining activity at 1 µM,panel of 391 kinases [25]; [28],103%
same,% Enzyme Activity (relative to DMSO controls),panel of 391 kinases [26],99.69%
same,remaining activity at 1 µM,panel of 391 kinases [26]; [28],102%
same,% Enzyme Activity (relative to DMSO controls),panel of 391 kinases [27],79.32%
same,remaining activity at 1 µM,panel of 391 kinases [27]; [28],81.8%
